Laboratory results as given in PubChem BioAssay (NCI).
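Cells were grown in 96-well plates and exposed to each compound for 48 hours at five concentrations; endpoints were interpolated linearly between bracketing concentrations, or set to the highest concentration if not reached. At the GI50, growth is halved. TGI denotes the concentration required for complete inhibition of growth.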

Tests used:
Experiment in all cases: inhibition of tumour cell growth, NCI panel, 48 h
SNB-78 CNS = test system: SNB-78 CNS
DMS 114 small cell lung = test system: DMS 114 small cell lung
HOP-18 NSCLC = test system: HOP-18 NSCLC
M19-MEL melanoma = test system: M19-MEL melanoma
DMS 273 small cell lung = test system: DMS 273 small cell lung
KM20L2 colon = test system: KM20L2 colon
XF 498 CNS = test system: XF 498 CNS
DLD-1 colon = test system: DLD-1 colon
RXF-631 renal = test system: RXF-631 renal

Row | Compound | TGI (SNB-78 CNS) [µM] | TGI (DMS 114 small cell lung) [µM] | TGI (HOP-18 NSCLC) [µM] | TGI (M19-MEL melanoma) [µM] | TGI (DMS 273 small cell lung) [µM] | TGI (KM20L2 colon) [µM] | TGI (XF 498 CNS) [µM] | TGI (DLD-1 colon) [µM] | TGI (RXF-631 renal) [µM] | GI50 (SNB-78 CNS) [µM] | GI50 (DMS 114 small cell lung) [µM] | GI50 (HOP-18 NSCLC) [µM] | GI50 (M19-MEL melanoma) [µM] | GI50 (DMS 273 small cell lung) [µM] | GI50 (KM20L2 colon) [µM] | GI50 (XF 498 CNS) [nM] | GI50 (DLD-1 colon) [µM] | GI50 (RXF-631 renal) [µM]
1 | CC(C)(C)C1CCC(CI)(N=[N+]=[N-])CC1 (centres undefined) | > 100 | > 100 | > 100 | > 100 | > 100 | > 100 | > 100 | > 100 | – | – | – | – | – | – | – | – | – | –
2 | COC(=O)[C@H]1CC(=O)C=C2CCCC21 (some centres undefined) | – | > 100 | – | > 100 | > 100 | – | > 100 | > 100 | > 100 | – | – | – | – | – | – | – | – | –
3 | Cc1ccc(C)c(NC(=O)C(=O)CC(=O)c2cccc3ccccc23)c1 | > 100 | > 100 | > 100 | > 100 | > 100 | > 100 | – | > 100 | > 100 | – | – | – | – | – | – | – | – | –
4 | O=C1C=CC(=O)c2c1cc1ccccc1c2O | 10.5 | – | 32.3 | 11.3 | 29.5 | 40.2 | 8.39 | 3.24 | – | – | – | – | – | – | – | – | – | –
5 | [CH3][Sn]([CH3])([CH3])[O]C(=O)C(O)c1ccccc1 (centres undefined) | > 100 | 31.2 | > 100 | 9.6 | 14 | 9.42 | 20.9 | > 100 | – | 42.7 | 5.78 | > 100 | 3.31 | 3.01 | 2.98 | 2920 | 4.93 | –
6 | CC1=C(C(=O)Nc2cccc(C(F)(F)F)c2)C(c2ccccc2F)C(C(=O)Nc2cccc(C(F)(F)F)c2)=C(C)N1 | 65.6 | 14.2 | – | 21.3 | – | 18.4 | 14.6 | 20.3 | 23.2 | – | – | – | – | – | – | – | – | –
7 | CCOC(=O)C/C(N)=C(\C#N)C(=O)OCC | > 100 | > 100 | > 100 | > 100 | > 100 | > 100 | > 100 | > 100 | > 100 | – | – | – | – | – | – | – | – | –
8 | O=C(O)/C(=C/c1ccccc1[N+](=O)[O-])c1cccs1 | > 100 | – | > 100 | > 100 | > 100 | > 100 | > 100 | > 100 | > 100 | – | – | – | – | – | – | – | – | –
9 | Cc1nn2c(=O)n(-c3cccc(-n4nnc5c(-c6ccccc6)c(C)nn5c4=O)c3C)nnc2c1-c1ccccc1 | > 100 | 30.2 | > 100 | > 100 | > 100 | 42.1 | 40.1 | 91.6 | – | – | – | – | – | – | – | – | – | –
10 | Cc1ccc(SC2C(C)(C)N(C(C)C)P2(=O)N(C(C)C)C(C)C)cc1 (centres undefined) | > 100 | – | > 100 | > 86.6 | 27.7 | > 100 | – | – | – | – | – | – | – | – | – | – | – | –
11 | O=c1c2cc(Br)ccc2[nH]c(=S)n1-c1ccccc1 | > 100 | – | > 100 | > 100 | > 100 | > 100 | – | > 100 | > 100 | – | – | – | – | – | – | – | – | –
12 | CN=c1ss/c(=N\C(=S)N(C)C)n1C1CCCCC1 | > 31.6 | > 31.6 | > 31.6 | > 31.6 | > 31.6 | > 31.6 | > 31.6 | > 100 | > 100 | – | – | – | – | – | – | – | – | –
13 | CC(=O)n1cc(CC(C)O)c(=O)[nH]c1=O (centres undefined) | > 100 | > 100 | > 100 | > 100 | > 100 | > 100 | > 100 | > 100 | > 100 | – | – | – | – | – | – | – | – | –
14 | Cc1ccc(S(=O)(=O)Nc2cccc(C)c2C)cc1 | > 100 | > 100 | > 100 | > 100 | > 100 | – | – | – | > 100 | – | – | – | – | – | – | – | – | –
15 | O=S1c2ccccc2N=C(c2ccc3ccccc3c2)CC1c1ccccc1F (centres undefined) | – | > 100 | > 100 | > 100 | > 100 | > 100 | > 100 | > 100 | > 100 | – | – | – | – | – | – | – | – | –
16 | NC(=O)c1ccccc1NC(=O)C(=O)Nc1n[nH]c(N)n1 | > 100 | – | > 100 | > 100 | > 100 | > 100 | > 100 | > 100 | – | – | – | – | – | – | – | – | – | –
17 | CN(C)CCCNC(=O)c1cccc2nc3ccccc3nc12 | > 71.6 | 30 | > 86.9 | 16.4 | > 100 | > 100 | 2.1 | > 100 | > 100 | – | – | – | – | – | – | – | – | –
18 | COc1ccc(/C=c2\sc3nnc(CCC(=O)Nc4cccc(C(F)(F)F)c4)n3c2=O)cc1 | > 100 | > 100 | > 100 | > 100 | > 100 | > 100 | > 100 | > 100 | > 100 | – | – | – | – | – | – | – | – | –
19 | CCOc1ccc(/C=N\N2C(=O)c3ccccc3C2=O)cc1 | > 100 | > 100 | > 100 | > 100 | > 100 | > 100 | > 100 | > 100 | > 100 | – | – | – | – | – | – | – | – | –
20 | CC(N)CN.CC(N)CN.[Cl-].[O]=[Os+2]=[O] (centres undefined) | > 100 | > 100 | > 100 | 26.3 | > 100 | > 100 | – | > 100 | > 100 | > 100 | 47.6 | 25.9 | 7.59 | 43.1 | 89.6 | – | > 100 | 96.9
21 | C=C(CS(=O)(=O)c1ccccc1)C(=O)OCC | – | 25.7 | – | – | 35.5 | 45.3 | 33.4 | 21.4 | 16.8 | – | – | – | – | – | – | – | – | –
22 | CN(C(=O)C12C3C4C1C1C2C3C41C(=O)N(C)C(C)(C)C)C(C)(C)C (centres undefined) | > 50 | > 50 | – | > 50 | > 50 | > 50 | > 50 | – | > 50 | – | – | – | – | – | – | – | – | –
